In ChEMBL document CHEMBL1201862, “PubChem BioAssay data set” (2004):
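Five compound concentrations were applied to cells in 96-well plates for 48 hours; endpoints were derived by simple linear interpolation of the resulting dose-response curve. GI50 = concentration required for 50% inhibition of growth.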 Activity calls are given as the source filed them. Cut-off read from the data, not from the text of the source: active = GI50 up to about 1.1 µM and inactive = higher.

What was measured:
Assay in all cases: inhibition of tumour cell growth, NCI panel, 48 h
MDA-MB-435 = test system: MDA-MB-435
UACC-62 = test system: UACC-62
HOP-62 = test system: HOP-62
Hs-578T = test system: Hs-578T
A498 = test system: A498
SK-MEL-5 = test system: SK-MEL-5
IGROV-1 = test system: IGROV-1
SF-539 = test system: SF-539
T47D = test system: T47D
SNB-75 = test system: SNB-75
PC-3 = test system: PC-3
MDA-MB-231 = test system: MDA-MB-231
SF-268 = test system: SF-268
SF-295 = test system: SF-295
HCT-116 = test system: HCT-116
OVCAR-8 = test system: OVCAR-8
A549 = test system: A549
KM12 = test system: KM12
UO-31 = test system: UO-31
RXF 393 = test system: RXF 393

Compound | GI50 (MDA-MB-435) | GI50 (UACC-62) | GI50 (HOP-62) | GI50 (Hs-578T) | GI50 (A498) | GI50 (SK-MEL-5) | GI50 (IGROV-1) | GI50 (SF-539) | GI50 (T47D) | GI50 (SNB-75) | GI50 (PC-3) | GI50 (MDA-MB-231) | GI50 (SF-268) | GI50 (SF-295) | GI50 (HCT-116) | GI50 (OVCAR-8) | GI50 (A549) | GI50 (KM12) | GI50 (UO-31) | GI50 (RXF 393)
CN(C)c1ccc(/C=N/n2c(-c3ccccc3)nc3ccccc3c2=O)cc1 | 79.4 µM (inactive) | 58.9 µM (inactive) | > 100 µM (inactive) | 20 µM (inactive) | > 100 µM (inactive) | 33.3 µM (inactive) | > 100 µM (inactive) | > 100 µM (inactive) | 15 µM (inactive) | 24.4 µM (inactive) | 24.5 µM (inactive) | 30 µM (inactive) | 44 µM (inactive) | > 100 µM (inactive) | 50.6 µM (inactive) | 41.6 µM (inactive) | 53.5 µM (inactive) | 24.8 µM (inactive) | – | –
Oc1c(Br)c(-c2ccccc2)nc2ccccc12 | 43.3 µM (inactive) | 21.9 µM (inactive) | > 62.1 µM (inactive) | > 89.1 µM (inactive) | 5.35 µM (inactive) | 8.15 µM (inactive) | 9.55 µM (inactive) | 82.8 µM (inactive) | 8.3 µM (inactive) | 8.15 µM (inactive) | 9.38 µM (inactive) | 2.87 µM (inactive) | > 10 µM (inactive) | 8.75 µM (inactive) | 53.3 µM (inactive) | – | 1.98 µM (inactive) | 1.18 µM (inactive) | 4.71 µM (inactive) | 63.1 µM (inactive)
Cc1ccc(C)c(C(=N)c2ccccc2Cc2ccccc2)c1 | 17.9 µM (inactive) | 14.2 µM (inactive) | 24.3 µM (inactive) | 5.42 µM (inactive) | 21.7 µM (inactive) | 15.5 µM (inactive) | 25.6 µM (inactive) | 17.9 µM (inactive) | 21 µM (inactive) | – | 26.7 µM (inactive) | 22.8 µM (inactive) | 18.6 µM (inactive) | 20 µM (inactive) | 12.6 µM (inactive) | 31.7 µM (inactive) | 24.2 µM (inactive) | 20.2 µM (inactive) | 27.3 µM (inactive) | 20 µM (inactive)
N#Cc1ccccc1NC(=O)C(O)C(O)C(O)C(O)C=O (stereo not given) | > 100 µM (inactive) | > 100 µM (inactive) | – | > 100 µM (inactive) | > 100 µM (inactive) | > 100 µM (inactive) | > 100 µM (inactive) | > 100 µM (inactive) | > 100 µM (inactive) | > 100 µM (inactive) | > 100 µM (inactive) | > 100 µM (inactive) | > 100 µM (inactive) | > 100 µM (inactive) | > 100 µM (inactive) | > 100 µM (inactive) | > 100 µM (inactive) | > 100 µM (inactive) | > 100 µM (inactive) | > 100 µM (inactive)
O=C(O)CCCCCNC(=O)CCC(CN(CC(=O)OCc1ccccc1)CC(=O)OCc1ccccc1)N(CC(=O)OCc1ccccc1)CC(=O)OCc1ccccc1 (stereo not given) | 19.4 µM (inactive) | 16.7 µM (inactive) | 20.1 µM (inactive) | 20.5 µM (inactive) | 17.9 µM (inactive) | 17.3 µM (inactive) | 17.6 µM (inactive) | 20.7 µM (inactive) | 17.2 µM (inactive) | – | 17 µM (inactive) | 19.5 µM (inactive) | 18.7 µM (inactive) | 17.3 µM (inactive) | 17.1 µM (inactive) | 16.5 µM (inactive) | 17.4 µM (inactive) | 17.6 µM (inactive) | 15.8 µM (inactive) | 14.7 µM (inactive)
CC1=C(C(=O)N[C@@H](Cc2ccccc2)C(=O)O)N2C(=O)[C@@H](NC(=O)[C@@H](N)CC(C)C)[C@H]2SC1 | > 100 µM (inactive) | > 100 µM (inactive) | – | > 100 µM (inactive) | > 100 µM (inactive) | > 100 µM (inactive) | > 100 µM (inactive) | > 100 µM (inactive) | > 100 µM (inactive) | > 100 µM (inactive) | > 100 µM (inactive) | > 100 µM (inactive) | > 100 µM (inactive) | > 100 µM (inactive) | – | > 100 µM (inactive) | > 100 µM (inactive) | > 100 µM (inactive) | – | > 100 µM (inactive)
O=S1(=O)N=C(SCc2ccccc2)N(c2ccccc2)c2ccncc21 | 41.5 µM (inactive) | 44.4 µM (inactive) | 31.3 µM (inactive) | 31.7 µM (inactive) | 17.1 µM (inactive) | 28.4 µM (inactive) | – | 66.2 µM (inactive) | 29.2 µM (inactive) | 24.7 µM (inactive) | 25.7 µM (inactive) | 68.2 µM (inactive) | 36.6 µM (inactive) | 34 µM (inactive) | 35.3 µM (inactive) | 47.3 µM (inactive) | 32.6 µM (inactive) | 41 µM (inactive) | 3.83 µM (inactive) | 26.6 µM (inactive)
CSC(SC)=C1CC(=O)Nc2ccccc2C1=O | 44.8 µM (inactive) | 24.6 µM (inactive) | > 100 µM (inactive) | 63.7 µM (inactive) | > 100 µM (inactive) | 51.5 µM (inactive) | 35.9 µM (inactive) | 58.7 µM (inactive) | 29.9 µM (inactive) | – | > 100 µM (inactive) | > 100 µM (inactive) | > 100 µM (inactive) | > 100 µM (inactive) | > 100 µM (inactive) | > 100 µM (inactive) | > 100 µM (inactive) | > 100 µM (inactive) | 55.1 µM (inactive) | 18.6 µM (inactive)
CCOC(=O)CC1CCN(C(=O)c2ccccc2)C2Cc3c([nH]c4ccccc34)C12C[N+](=O)[O-] (stereo not given) | 97.3 µM (inactive) | 58.7 µM (inactive) | 46.1 µM (inactive) | > 100 µM (inactive) | > 100 µM (inactive) | 57.8 µM (inactive) | 58.7 µM (inactive) | > 100 µM (inactive) | 54.3 µM (inactive) | 56.6 µM (inactive) | 43.5 µM (inactive) | > 100 µM (inactive) | > 100 µM (inactive) | 40.5 µM (inactive) | – | 79.3 µM (inactive) | – | 71 µM (inactive) | 48.3 µM (inactive) | 77.1 µM (inactive)
O=C(N/C=C1\C(=O)Oc2ccccc2C1=O)Oc1ccccc1 | 20.1 µM (inactive) | 20 µM (inactive) | 17.6 µM (inactive) | 9.64 µM (inactive) | 15.2 µM (inactive) | 32.7 µM (inactive) | 20.7 µM (inactive) | 16 µM (inactive) | 22.4 µM (inactive) | 14.3 µM (inactive) | 29.5 µM (inactive) | 16.7 µM (inactive) | – | 30.5 µM (inactive) | 21.4 µM (inactive) | 25.8 µM (inactive) | 32.5 µM (inactive) | 35.6 µM (inactive) | 16.4 µM (inactive) | 8.59 µM (inactive)
COc1cc2cc(C(=O)Nc3cc4n(n3)-c3ccccc3C4)[nH]c2c(OC)c1OC | 1.44 µM (inactive) | – | 2 µM (inactive) | 2.98 µM (inactive) | 23.4 µM (inactive) | 1.41 µM (inactive) | 2.73 µM (inactive) | 7.08 µM (inactive) | 0.883 µM (active) | 5.83 µM (inactive) | 2.71 µM (inactive) | 8.04 µM (inactive) | 6.19 µM (inactive) | 3.4 µM (inactive) | 2.73 µM (inactive) | 1.26 µM (inactive) | 1.81 µM (inactive) | 1.85 µM (inactive) | 1.97 µM (inactive) | 30.1 µM (inactive)
CC12CCC(Br)C(C)(C)C1CC=C1C(=O)OCC1O2 (stereo not given) | 12 µM (inactive) | 8.59 µM (inactive) | – | 10.9 µM (inactive) | 12 µM (inactive) | 15.1 µM (inactive) | 3.72 µM (inactive) | 60.8 µM (inactive) | 15.4 µM (inactive) | 15.5 µM (inactive) | 9.89 µM (inactive) | 14.4 µM (inactive) | 14.1 µM (inactive) | 15.8 µM (inactive) | 12.9 µM (inactive) | 11.6 µM (inactive) | 23.6 µM (inactive) | 14.2 µM (inactive) | 8.13 µM (inactive) | 11.1 µM (inactive)
C[n+]1c2ccccc2c(C(=O)Nc2ccc(S(=O)(=O)N=C(N)N)cc2)c2ccccc21 | > 100 µM (inactive) | > 100 µM (inactive) | > 100 µM (inactive) | > 100 µM (inactive) | > 100 µM (inactive) | > 100 µM (inactive) | 35.6 µM (inactive) | > 100 µM (inactive) | > 100 µM (inactive) | > 100 µM (inactive) | > 100 µM (inactive) | 23.2 µM (inactive) | > 100 µM (inactive) | > 100 µM (inactive) | > 100 µM (inactive) | > 100 µM (inactive) | > 100 µM (inactive) | > 100 µM (inactive) | > 100 µM (inactive) | –
O=C1CSSCC(=O)Nc2ccccc2N1 | > 100 µM (inactive) | > 100 µM (inactive) | > 100 µM (inactive) | > 100 µM (inactive) | > 100 µM (inactive) | > 100 µM (inactive) | > 100 µM (inactive) | > 100 µM (inactive) | > 100 µM (inactive) | – | > 100 µM (inactive) | > 100 µM (inactive) | > 100 µM (inactive) | > 100 µM (inactive) | > 100 µM (inactive) | > 100 µM (inactive) | > 100 µM (inactive) | > 100 µM (inactive) | > 100 µM (inactive) | > 100 µM (inactive)
O=c1[nH]c2ccccc2c(=O)n1/N=C\c1ccccc1O | > 100 µM (inactive) | > 100 µM (inactive) | > 100 µM (inactive) | 32.3 µM (inactive) | > 100 µM (inactive) | 88.3 µM (inactive) | > 100 µM (inactive) | > 100 µM (inactive) | > 100 µM (inactive) | 36.4 µM (inactive) | > 100 µM (inactive) | > 100 µM (inactive) | 58.6 µM (inactive) | > 100 µM (inactive) | > 100 µM (inactive) | – | > 100 µM (inactive) | 30.5 µM (inactive) | > 100 µM (inactive) | –
